“And” between values parts separate entries of the source, which are not always exact repeats. Equal entries are not always repeated. Where two headings read alike, the source gives them in different places.
Experiments:
[1] = molecular target: T1, rat TREK-1 (Rattus norvegicus, UniProt Q920B6); assay: rat TREK-1 thallium flux; format: cell-based; settings: read-out: TREK-1 IC50 (rat, Tl+)
T1 sequence (Q920B6 1-426): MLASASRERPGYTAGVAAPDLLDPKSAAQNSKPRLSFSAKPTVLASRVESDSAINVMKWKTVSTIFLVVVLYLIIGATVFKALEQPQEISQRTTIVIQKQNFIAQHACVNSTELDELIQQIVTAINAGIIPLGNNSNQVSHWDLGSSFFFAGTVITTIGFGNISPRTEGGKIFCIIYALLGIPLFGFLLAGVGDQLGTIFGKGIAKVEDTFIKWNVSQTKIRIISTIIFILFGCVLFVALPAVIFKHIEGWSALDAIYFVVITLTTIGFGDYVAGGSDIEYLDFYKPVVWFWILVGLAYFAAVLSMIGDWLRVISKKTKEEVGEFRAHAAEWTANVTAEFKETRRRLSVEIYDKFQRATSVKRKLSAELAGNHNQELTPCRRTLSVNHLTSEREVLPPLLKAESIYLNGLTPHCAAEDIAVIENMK

[2] = molecular target: mouse TREK-1 (Mus musculus, UniProt P97438); assay: mouse TREK-1 thallium flux; format: cell-based; settings: read-out: TREK-1 IC50 (mouse, Tl+)
Chain of mouse TREK-1 (P97438 whole entry): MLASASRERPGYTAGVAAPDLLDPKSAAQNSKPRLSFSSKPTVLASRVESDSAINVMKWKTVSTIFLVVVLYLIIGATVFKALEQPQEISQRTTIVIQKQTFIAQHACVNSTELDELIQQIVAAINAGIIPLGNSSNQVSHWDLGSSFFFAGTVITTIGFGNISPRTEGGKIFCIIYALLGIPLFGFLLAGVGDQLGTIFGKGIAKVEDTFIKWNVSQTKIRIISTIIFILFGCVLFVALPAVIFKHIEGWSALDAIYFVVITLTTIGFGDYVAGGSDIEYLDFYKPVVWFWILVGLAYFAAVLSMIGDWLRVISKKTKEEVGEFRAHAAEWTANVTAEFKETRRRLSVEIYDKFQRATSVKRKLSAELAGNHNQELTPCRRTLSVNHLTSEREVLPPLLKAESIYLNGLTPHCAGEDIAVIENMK

[3] = molecular target: T1, rat TREK-1; assay: rat TREK-1 manual patch clamp; format: cell-based; settings: read-out: TREK-1 IC50 (rat, MPC)
[4] = Plasma protein binding, human (equilibrium dialysis); format: in vitro ADME; settings: pH 7.4, read-out: PPB human (converted)
Experimental: (§1) Plasma protein binding and Brain homogenate binding: Determination of fraction unbound (f u) in plasma was conducted in vitro via equilibrium dialysis using HTDialysis (HTD) membrane plates. The top half of the plate was filled with 100 uL of Dubelco’s Phosphate Buffered Saline, pH 7.4 (DPBS). Compounds were diluted into plasma from each species (5 µM final concentration), which was aliquoted in triplicate to the ‘bottom half’ of the prepared HTD plate wells. The HTD plate was sealed and incubated for 6 hours at 37 °C. Following incubation, each well (both top and bottom halves) were transferred (20 µL) to the corresponding wells of a 96-shallow-well (V-bottom) plate. The daughter plates were then matrix-matched (DPBS side wells received equal volume of plasma, and plasma side wells received equal volume of DPBS), and extraction solution (120 µL; acetonitrile containing 50 nM carbamazepine as IS) was added to all wells of both daughter plates to precipitate protein and extract test article. The plates were then sealed and centrifuged (3500 rcf) for 10 minutes at ambient temperature. Supernatant (60 µL) from each well of the daughter plates was then transferred to the corresponding wells of new daughter plates (96-shallow-well, V bottom) containing water (Milli-Q, 60 µL/well), and the plates were sealed in preparation for LC-MS/MS analysis (see LC-MS/MS analysis method below).
(§2) The unbound fraction (f u) was calculated following the equation below, and mean values for each species were calculated from 3 replicates. […]
(§3) Fraction unbound for both plasma and brain samples was determined using Equation 4.
(§4) Equation 4 Determination of fraction unbound in plasma. […]

[5] = Plasma protein binding, mouse; format: in vitro ADME; settings: bound; for fraction unbound at 6 h, 5 µM: mouse, plasma, pH 7.4, mouse plasma, read-out: PPB mouse (converted)
Experimental: as §1, §2, §3, §4

[6] = Brain homogenate binding, mouse; format: in vitro ADME; settings: bound
Experimental: concentration), which was aliquoted in triplicate to the ‘bottom half’ of the prepared HTD plate wells. The HTD plate was sealed and incubated for 6 hours at 37 °C. Following incubation, each well (both top and bottom halves) were transferred (20 µL) to the corresponding wells of a 96-shallow-well (V-bottom) plate. The daughter plates were then matrix-matched (DPBS side wells received equal volume of plasma, and plasma side wells received equal volume of DPBS), and extraction solution (120 µL; acetonitrile containing 50 nM carbamazepine as IS) was added to all wells of both daughter plates to precipitate protein and extract test article. […]
The unbound fraction (f u) was calculated following the equation below, and mean values for each species were calculated from 3 replicates.
A similar approach was used to determine the degree of brain homogenate binding, which employed the same methodology and procedure with the following modifications: 1) a final compound concentration of 1 μM was used, 2) naïve rat brains were homogenized in DPBS (1:3 composition of brain: DPBS, w/w) using a Mini-Bead Beater™ machine in order to obtain brain homogenate, which was then treated in the same manner as the plasma samples in the previously described plasma protein binding assay. Fraction unbound for both plasma and brain samples was determined using Equation 4. […]

[7] = molecular target: CYP 2C9 (Homo sapiens, UniProt P11712); assay: CYP450 inhibition 2C9; format: in vitro ADME
[8] = molecular target: CYP 2D6 (Homo sapiens, UniProt P10635); assay: CYP450 inhibition 2D6; format: in vitro ADME
Chain of CYP 2D6 (P10635 whole entry): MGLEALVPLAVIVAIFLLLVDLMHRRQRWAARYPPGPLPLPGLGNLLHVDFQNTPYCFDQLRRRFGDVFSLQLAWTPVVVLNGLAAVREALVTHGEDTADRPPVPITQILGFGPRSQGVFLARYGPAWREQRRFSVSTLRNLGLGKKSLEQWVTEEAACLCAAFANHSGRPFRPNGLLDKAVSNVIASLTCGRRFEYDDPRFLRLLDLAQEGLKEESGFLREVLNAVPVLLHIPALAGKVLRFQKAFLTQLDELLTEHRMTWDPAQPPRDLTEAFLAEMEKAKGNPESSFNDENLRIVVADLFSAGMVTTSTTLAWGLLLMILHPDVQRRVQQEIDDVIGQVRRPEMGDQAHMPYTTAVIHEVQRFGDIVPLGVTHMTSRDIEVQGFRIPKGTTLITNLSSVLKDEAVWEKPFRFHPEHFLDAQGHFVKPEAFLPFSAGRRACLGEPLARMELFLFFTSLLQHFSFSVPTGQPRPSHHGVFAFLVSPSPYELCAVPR

[9] = tested on: 5-strains, with and without S9; assay: AMES assay (5-strains, with and without S9); format: cell-based
[10] = tested on: 68 GPCRs, ion channels, and transporters; assay: Eurofins Lead Profiling Panel, radioligand binding displacement; settings: 68 targets, 10 μM
[11] = molecular target: A3 (Homo sapiens, UniProt P0DMS8); assay: Functional assay, adenosine A3; format: biochemical
Chain of A3 (P0DMS8 whole entry): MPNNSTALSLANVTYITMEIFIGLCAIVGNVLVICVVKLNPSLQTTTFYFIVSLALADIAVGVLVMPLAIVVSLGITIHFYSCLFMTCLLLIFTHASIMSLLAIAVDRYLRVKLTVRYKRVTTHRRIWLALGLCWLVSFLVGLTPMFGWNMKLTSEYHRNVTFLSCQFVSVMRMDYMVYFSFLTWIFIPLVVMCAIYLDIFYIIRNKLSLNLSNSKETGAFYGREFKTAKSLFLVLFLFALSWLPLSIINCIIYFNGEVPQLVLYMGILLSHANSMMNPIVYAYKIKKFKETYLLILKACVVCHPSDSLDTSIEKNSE

[12] = molecular target: HCN4 (Homo sapiens, UniProt Q9Y3Q4); assay: MPC ion channel panel, HCN4; format: cell-based
[13] = molecular target: Kv1.5 (Homo sapiens, UniProt P22460); assay: MPC ion channel panel, Kv1.5; format: cell-based
Chain of Kv1.5 (P22460 whole entry): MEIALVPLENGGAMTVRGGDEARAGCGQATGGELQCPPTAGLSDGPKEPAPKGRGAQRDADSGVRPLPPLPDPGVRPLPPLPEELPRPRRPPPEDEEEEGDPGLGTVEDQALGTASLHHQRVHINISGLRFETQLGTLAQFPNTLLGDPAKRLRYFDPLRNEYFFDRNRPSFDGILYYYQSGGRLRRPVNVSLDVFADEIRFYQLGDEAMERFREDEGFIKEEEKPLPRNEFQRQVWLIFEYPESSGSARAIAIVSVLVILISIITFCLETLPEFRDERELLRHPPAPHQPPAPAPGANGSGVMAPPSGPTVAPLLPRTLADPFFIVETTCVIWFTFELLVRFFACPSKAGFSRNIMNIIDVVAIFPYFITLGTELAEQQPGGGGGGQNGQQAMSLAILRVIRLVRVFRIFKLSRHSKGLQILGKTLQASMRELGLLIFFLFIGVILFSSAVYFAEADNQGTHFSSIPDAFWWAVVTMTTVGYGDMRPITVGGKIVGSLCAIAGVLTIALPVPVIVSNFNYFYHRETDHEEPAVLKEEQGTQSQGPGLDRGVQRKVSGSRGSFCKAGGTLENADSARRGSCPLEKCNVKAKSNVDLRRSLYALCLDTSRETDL

[14] = molecular target: KCNQ1/E1 (Homo sapiens, UniProt P51787); assay: MPC ion channel panel, KCNQ1/E1; format: cell-based
[15] = molecular target: Nav1.5 (Homo sapiens, UniProt Q14524); assay: MPC ion channel panel, Nav1.5; format: cell-based
Chain of Nav1.5 (Q14524 whole entry): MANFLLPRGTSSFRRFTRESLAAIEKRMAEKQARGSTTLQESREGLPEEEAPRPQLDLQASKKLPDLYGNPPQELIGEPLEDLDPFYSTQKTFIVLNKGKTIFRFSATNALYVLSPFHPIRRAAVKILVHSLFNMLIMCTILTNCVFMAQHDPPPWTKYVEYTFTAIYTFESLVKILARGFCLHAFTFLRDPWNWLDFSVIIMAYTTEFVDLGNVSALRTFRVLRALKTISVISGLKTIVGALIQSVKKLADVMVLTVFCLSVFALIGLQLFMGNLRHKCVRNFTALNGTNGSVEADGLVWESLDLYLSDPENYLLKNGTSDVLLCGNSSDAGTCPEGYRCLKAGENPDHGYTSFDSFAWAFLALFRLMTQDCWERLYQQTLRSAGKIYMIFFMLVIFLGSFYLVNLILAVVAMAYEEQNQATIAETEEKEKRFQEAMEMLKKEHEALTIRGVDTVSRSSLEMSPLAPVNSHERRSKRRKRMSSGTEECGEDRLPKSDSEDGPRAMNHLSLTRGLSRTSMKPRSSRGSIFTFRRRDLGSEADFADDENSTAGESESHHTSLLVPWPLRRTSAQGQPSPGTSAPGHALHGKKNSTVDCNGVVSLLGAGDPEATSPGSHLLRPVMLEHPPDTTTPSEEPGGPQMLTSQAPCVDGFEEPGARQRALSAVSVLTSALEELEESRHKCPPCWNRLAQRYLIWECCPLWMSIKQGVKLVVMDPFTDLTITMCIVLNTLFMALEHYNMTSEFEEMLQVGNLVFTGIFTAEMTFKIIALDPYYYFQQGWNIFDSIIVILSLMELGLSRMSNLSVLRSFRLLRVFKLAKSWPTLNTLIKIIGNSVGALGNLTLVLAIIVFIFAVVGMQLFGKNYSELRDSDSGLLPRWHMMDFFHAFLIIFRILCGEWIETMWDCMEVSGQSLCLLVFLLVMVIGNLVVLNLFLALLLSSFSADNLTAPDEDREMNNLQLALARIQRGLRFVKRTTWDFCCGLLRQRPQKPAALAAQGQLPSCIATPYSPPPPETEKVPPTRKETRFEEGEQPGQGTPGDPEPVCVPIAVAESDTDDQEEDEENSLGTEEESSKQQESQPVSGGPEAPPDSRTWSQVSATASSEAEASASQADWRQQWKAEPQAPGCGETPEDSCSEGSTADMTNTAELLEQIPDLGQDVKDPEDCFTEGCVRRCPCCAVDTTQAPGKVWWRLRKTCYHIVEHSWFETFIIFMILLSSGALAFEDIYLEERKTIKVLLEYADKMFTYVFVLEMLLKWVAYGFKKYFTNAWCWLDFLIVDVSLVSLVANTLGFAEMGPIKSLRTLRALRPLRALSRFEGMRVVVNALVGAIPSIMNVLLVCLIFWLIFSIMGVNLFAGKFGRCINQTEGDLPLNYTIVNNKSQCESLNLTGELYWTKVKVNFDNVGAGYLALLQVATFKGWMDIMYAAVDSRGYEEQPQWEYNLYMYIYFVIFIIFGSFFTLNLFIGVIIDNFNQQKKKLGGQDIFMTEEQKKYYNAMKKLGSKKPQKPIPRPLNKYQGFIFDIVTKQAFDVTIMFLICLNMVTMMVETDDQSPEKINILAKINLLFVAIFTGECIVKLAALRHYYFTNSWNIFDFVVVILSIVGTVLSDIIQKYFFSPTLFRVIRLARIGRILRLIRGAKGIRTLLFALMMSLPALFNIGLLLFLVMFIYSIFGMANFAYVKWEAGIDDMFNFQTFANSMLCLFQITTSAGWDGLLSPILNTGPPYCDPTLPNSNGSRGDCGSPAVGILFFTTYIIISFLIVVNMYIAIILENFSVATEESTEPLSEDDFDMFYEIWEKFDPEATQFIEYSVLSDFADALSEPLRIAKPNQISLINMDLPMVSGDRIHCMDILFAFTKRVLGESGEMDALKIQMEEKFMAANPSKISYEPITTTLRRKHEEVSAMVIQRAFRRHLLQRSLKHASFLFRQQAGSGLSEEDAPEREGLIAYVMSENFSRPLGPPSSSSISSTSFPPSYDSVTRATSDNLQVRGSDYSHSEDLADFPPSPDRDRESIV

[16] = molecular target: hERG (Homo sapiens, UniProt Q12809); assay: Functional hERG inhibition; format: cell-based
Chain of hERG (Q12809 whole entry): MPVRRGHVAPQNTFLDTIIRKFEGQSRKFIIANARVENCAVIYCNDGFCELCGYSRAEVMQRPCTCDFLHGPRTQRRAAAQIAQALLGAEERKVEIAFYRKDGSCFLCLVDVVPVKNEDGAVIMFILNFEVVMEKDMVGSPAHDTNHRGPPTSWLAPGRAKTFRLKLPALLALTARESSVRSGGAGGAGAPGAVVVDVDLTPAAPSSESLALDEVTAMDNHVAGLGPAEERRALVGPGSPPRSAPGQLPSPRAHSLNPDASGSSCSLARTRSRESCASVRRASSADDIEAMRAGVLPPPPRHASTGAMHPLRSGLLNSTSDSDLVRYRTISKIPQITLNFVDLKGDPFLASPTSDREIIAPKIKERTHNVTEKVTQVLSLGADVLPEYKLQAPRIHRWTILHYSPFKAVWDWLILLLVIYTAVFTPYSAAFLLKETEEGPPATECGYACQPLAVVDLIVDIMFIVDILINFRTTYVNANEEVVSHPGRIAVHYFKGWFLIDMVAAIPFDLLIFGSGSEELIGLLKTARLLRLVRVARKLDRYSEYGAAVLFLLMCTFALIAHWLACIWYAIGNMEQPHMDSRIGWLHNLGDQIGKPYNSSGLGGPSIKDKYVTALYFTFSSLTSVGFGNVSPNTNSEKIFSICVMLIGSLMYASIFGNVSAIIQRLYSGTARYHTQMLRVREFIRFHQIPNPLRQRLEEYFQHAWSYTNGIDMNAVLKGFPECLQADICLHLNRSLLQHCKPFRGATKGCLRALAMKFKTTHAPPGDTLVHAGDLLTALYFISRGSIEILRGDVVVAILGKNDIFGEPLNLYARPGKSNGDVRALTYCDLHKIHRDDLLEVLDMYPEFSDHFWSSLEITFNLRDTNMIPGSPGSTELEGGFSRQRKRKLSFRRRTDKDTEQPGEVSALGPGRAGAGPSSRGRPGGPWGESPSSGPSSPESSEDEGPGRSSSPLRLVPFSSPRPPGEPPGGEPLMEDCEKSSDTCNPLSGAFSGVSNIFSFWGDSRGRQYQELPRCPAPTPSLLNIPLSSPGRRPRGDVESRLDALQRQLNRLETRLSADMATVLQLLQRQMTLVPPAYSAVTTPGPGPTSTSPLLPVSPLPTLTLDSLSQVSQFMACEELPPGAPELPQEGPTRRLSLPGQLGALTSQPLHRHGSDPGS

[17] = Embryo fetal developmental toxicity in vivo
[18] = in vivo; settings: rat, po
[19] = Rat 4-day dosing general toxicity study; settings: at NOAEL doses, rat 4-day study

SMILES | IC50 [1] [µM] | IC50 [2] [µM] | IC50 [3] [µM] | fraction unbound at 6 h, 5 µM [4] | fraction unbound at 6 h, 5 µM [5] | BHB mouse [6] | IC50 [7] [µM] | IC50 [8] [µM] | AMES [9] | targets with >50% inhibition in Lead Profiling Panel [10] | IC50 [11] [µM] | inhibition at 10 µM [12] [%] | inhibition at 10 µM [13] [%] | inhibition at 10 µM [14] [%] | inhibition at 10 µM [15] [%] | IC50 [16] [µM] | embryo fetal developmental toxicity [17] | NOAEL at 4 days [18] [mg/kg] | safety margin based on the AUC [19] | also measured
CC(=O)N1CCC(n2ncc(Cl)c2C(=O)Nc2ncc(C#Cc3ccccc3)cc2C)CC1 [Compound 10, 1-(1-Acetylpiperidin-4-yl)-4-chloro-N-(3-methyl-5-(phenylethynyl)pyridin-2-yl)-1H-pyrazole-5-carboxamide] | 0.28 | 0.23 | 0.088 | 0.01 | 0.018 | 99.5% and 99.5, 99.5% | 6.1 | 10.3 | Negative | only two targets displayed >50% inhibition | 5.37 | ≤ 50 | ≤ 50 | ≤ 50 | ≤ 50 | 6.7 | positive | 10 | more than 10 fold | embryo fetal developmental toxicity ([17]; listed as ONO-9517601): positive signal
CC(=O)N1CC[C@@H](n2ncc(Cl)c2C(=O)Nc2ncc(C#Cc3ccc(F)cc3)cc2C)[C@H](F)C1 [Compound 11, 1-((3R,4R)-1-Acetyl-3-fluoropiperidin-4-yl)-4-chloro-N-(5-((4-fluorophenyl)ethynyl)-3-methylpyridin-2-yl)-1H-pyrazole-5-carboxamide] | 0.29 | 0.44 | 0.2 | 0.048 |  | 99.5% | 4.9 | 7 | Negative | only two targets displayed >50% inhibition | 19.8 | ≤ 50 | ≤ 50 | 60 | ≤ 50 | 4.3 | positive | 6 | more than 10 fold | embryo fetal developmental toxicity ([17]; listed as ONO-7927846): positive signal
Cc1cc(C#Cc2ccccc2)cnc1NC(=O)c1c(Cl)cnn1[C@H]1CCOC1 [Compound 15a, (S)-4-Chloro-N-(3-methyl-5-(phenylethynyl)pyridin-2-yl)-1-(tetrahydrofuran-3-yl)-1H-pyrazole-5-carboxamide] |  |  |  |  | ~0.02 |  |  |  |  |  |  |  |  |  |  |  |  |  |  | PPB mouse ([5]; mouse plasma): 98.0%

— PMC12621189, “Optimization of Selective and CNS Penetrant Alkyne-Based TREK Inhibitors: The Discovery and Characterization of ONO-9517601 (VU6022856) and ONO-7927846 (VU6024391)” (Journal of Medicinal Chemistry, 2025)
